Where “and” joins values, the source holds several entries; their conditions need not be identical. Identical values can stand only once. Calls of active or inactive are those of the source.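 The calls were made as follows: active = compounds giving half or more protection of infected cells from virus-caused growth loss, again on retest; inactive = the rest.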
Test system: CEM cells HIV-1 protection, formazan growth assay
Assay: NCI AIDS Antiviral Assay
Details: for IC50: measured here: growth of uninfected CEM cells
Summary of the method: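 Human CEM cells, uninfected and HIV-1-infected, exposed to five drug concentrations; growth measured by soluble formazan assay and scored as percent protection from infection, with protecting compounds retested.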

Q: How did the EC50 turn out when `COC(=O)[C@@]12CC[C@]1(C(=O)OC)C1C(C)=CC(=O)O[C@@]12C` (some centres not stated) was run?
A: > 200 µM

Q: And the IC50?
A: > 200 µM

Q: `On1c(-c2ccccc2)nc2ccccc2c1=S` was tested. Which EC50 did it give?
A: > 200 µM

Q: What about the IC50 of the same compound?
A: 1.45 µM

Q: Which results are given for `CN1CC=C(c2cccn2C)CC1`?
A: EC50: > 200 µM; IC50: 132 µM

Q: `CC(=O)OC1OC2C(NC(=O)OC(C)(C)C)C1CC2(OCc1ccccc1)OCc1ccccc1` (configuration not stated) was tested. Which EC50 did it give?
A: > 28.2 µM

Q: What about the IC50 of the same compound?
A: > 28.2 µM

Q: Which outcome does the source give for `O=C(Cc1nc2ccccc2o1)C(=O)Nc1cccc(C(F)(F)F)c1` here?
A: inactive

Q: Which outcome does the source give for `CCOC(=O)/N=c1/nc(N(C)C)ss1` here?
A: inactive

Q: How did the outcome turn out when `CCCC(=O)OC1C(C2COC(C)(C)O2)OC2OC(C)(C)OC21` (configuration not stated) was run?
A: inactive

Q: With `COC(=O)/C=C1\C(CO[Si](C)(C)C(C)(C)C)OC(n2ccc(=O)[nH]c2=O)C1O` (configuration not stated) as the compound, how does the EC50 read?
A: > 200 µM

Q: And the IC50?
A: 6.17 µM

Q: Which EC50 does the source give for `COc1cc(OC)cc(C(=O)CC(=O)c2cc(OC)cc(OC)c2)c1` here?
A: > 20.9 µM

Q: And the IC50?
A: 15.5 µM

Q: Which results are given for `COc1c2c(nc3ccccc13)-c1cc3c(c(=O)n1C2)COC(=O)C3(O)CC(=O)N1CCOCC1` (configuration not stated)?
A: EC50: > 10 µM; IC50: 0.741 µM

Q: How did the EC50 turn out when `CCOC(=O)c1ccc(Nc2cnc3ccc(C(F)(F)F)cc3n2)cc1` was run?
A: > 200 µM

Q: And the IC50?
A: 10.7 µM

Q: How did the EC50 turn out when `O=P1(Cc2ccccc2)C(c2ccccc2)=C(O)C2CCCC21` (configuration not stated) was run?
A: > 112 µM

Q: And the IC50?
A: > 112 µM

Q: With `COc1c(C)c(C/C=C(\C)CC/C=C(\C)CC/C=C(\C)CC/C=C(\C)CCC=C(C)C)c(OC)c(OC)c1OC` as the compound, how does the EC50 read?
A: > 200 µM

Q: And the IC50?
A: 31.6 µM

Q: How did the outcome turn out when `O=C(Nc1ccccc1)Oc1ccccc1C1CCCCC1` was run?
A: inactive

Q: What does the source list for `CC[C@H]1[C@@H](C)C=C[C@@H](C)N1S(=O)(=O)c1ccc(C)cc1`?
A: EC50: > 17.8 µM; IC50: > 17.8 µM

Q: With `COC(=O)CCCC1(CCCC(=O)OC)CCCCCCCCC(CCCC(=O)OC)(CCCC(=O)OC)C(=O)C1=O` as the compound, how does the EC50 read?
A: > 200 µM

Q: What about the IC50 of the same compound?
A: 35.5 µM

Q: `Cc1nc(Nc2ccccc2C)c2ccsc2n1` was tested. Which EC50 did it give?
A: > 263 µM

Q: And the IC50?
A: > 263 µM

Q: How did the outcome turn out when `N#CC(C(=O)C(=O)Nc1ccc(Cl)cc1)c1ccccc1` (configuration not stated) was run?
A: inactive

Q: Which results are given for `Cc1c(CCO)c(=O)n2n1CCCC2`?
A: EC50: > 200 µM; IC50: > 200 µM

Q: What does the source list for `Cc1ccccc1SCc1nc2ccccc2c(C)[n+]1[O-]`?
A: EC50: 21.9 µM; IC50: 102 µM

Q: `CC(=O)Nc1ccccc1S(=O)c1ccccc1` (configuration not stated) was tested. Which EC50 did it give?
A: > 229 µM

Q: And the IC50?
A: > 229 µM

Q: Which EC50 does the source give for `CCC1OC(=O)[C@H](C)C(OC2CC(C)(OC)C(O)C(C)O2)C(C)C(OC2OC(C)CC(N(C)C)C2O)[C@](C)(O)CC(C)CN(C)[C@H](C)[C@@H](O)[C@]1(C)O` (some centres not stated) here?
A: > 200 µM

Q: What about the IC50 of the same compound?
A: 132 µM

Q: What does the source list for `NC(=S)N/N=C/c1ccc(O)cn1`?
A: EC50: > 661 µM; IC50: 1.12 µM

Q: `CCCCC[C@@H]1CCCC2C1CC[C@@H](CC/C=C/C(=O)OC)N2C(=O)OC(C)C(Cl)(Cl)Cl` (some centres not stated) was tested. Which outcome did it give?
A: inactive

Q: With `CC(=O)OC1C(CCl)OC(N=[N+]=[N-])C(OC(C)=O)C1OC(C)=O` (configuration not stated) as the compound, how does the outcome read?
A: inactive

Q: How did the EC50 turn out when `Nc1nc(=O)n(C2OC(CO)C(O)C2Cl)cc1I` (configuration not stated) was run?
A: > 200 µM

Q: What about the IC50 of the same compound?
A: 1.17 µM

Q: `O=c1[nH]c(=O)n(C2CC(O)C(CO)O2)cc1C#Cc1c(F)c(F)c(F)c(F)c1F` (configuration not stated) was tested. Which EC50 did it give?
A: > 603 µM

Q: What about the IC50 of the same compound?
A: 110 µM

Q: How did the EC50 turn out when `Cc1cc2c(s1)C(N)CC2=O` (configuration not stated) was run?
A: > 200 µM

Q: What about the IC50 of the same compound?
A: > 200 µM

Q: Which EC50 does the source give for `O=c1c(C(c2ccc([N+](=O)[O-])cc2)c2c(O)c3ccccc3n(-c3ccccc3)c2=O)c(O)c2ccccc2n1-c1ccccc1` here?
A: > 11.7 µM

Q: And the IC50?
A: > 11.7 µM

Q: With `Cc1ccc2c(c1)[nH]c1cc(C(F)(F)F)ccc1[p+]2=O` (configuration not stated) as the compound, how does the EC50 read?
A: > 200 µM

Q: And the IC50?
A: 26.3 µM

Q: `CC1(C)CNCC2(C)OCCCCCCCCCCOC3(C)CNCC(C)(C)[N-]C(=O)C(C)(CNCC(C)(C)[N-]C3=O)OCCCCCCCCCCOC(C)(CNCC(C)(C)[N-]C2=O)C(=O)[N-]1.[Ni+2].[Ni+2]` was tested. Which EC50 did it give?
A: > 200 µM

Q: For `COc1cc(N)ccc1Nc1c2ccccc2nc2ccccc12`, which EC50 is on record?
A: > 200 µM

Q: What about the IC50 of the same compound?
A: 1.02 µM

Q: For `COCCOCc1nc(C#N)c(N)o1`, which outcome is on record?
A: inactive

Q: For `CC1(C2CCC3(C)C(C2)C3Sc2ccccc2)OCCO1` (configuration not stated), which outcome is on record?
A: inactive

Q: With `N#Cc1cc2c(n(C3OC(CO)C(O)C(O)C3O)c1=S)CCCCCC2` (configuration not stated) as the compound, how does the EC50 read?
A: > 200 µM

Q: And the IC50?
A: > 200 µM

Q: What does the source list for `O=C(C/C(=N\NC(=O)C[n+]1ccccc1)C(=O)Nc1nc2ccc([N+](=O)[O-])cc2s1)CC(c1ccccc1)c1c(O)c2ccccc2oc1=O` (configuration not stated)?
A: EC50: > 2.75 µM; IC50: > 2.75 µM

Q: `CNc1cc(OCc2ccccc2)c(OC)cc1C(=O)N1CCC[C@H]1CO` was tested. Which EC50 did it give?
A: > 200 µM

Q: What about the IC50 of the same compound?
A: 42.7 µM

Q: Which EC50 does the source give for `CC12ON=C(c3ccccc3)N1C=CN1C(c3ccccc3)=NOC12` (configuration not stated) here?
A: > 200 µM

Q: What about the IC50 of the same compound?
A: > 200 µM

Q: `O=C(OC[C@H]1OCC(=O)C2(OC(=O)c3ccccc3)C3C=CC(C3)C12)c1ccccc1` (some centres not stated) was tested. Which outcome did it give?
A: inactive

Q: What does the source list for `COc1ccc2c(c1)c1c(n2CCN2CCCCC2)-c2cccc(OC)c2CC1`?
A: EC50: > 200 µM; IC50: 11.2 µM

Q: Which EC50 does the source give for `CC1(C)CNC(=O)C2(C=NC(C)(C)CNC(=O)C3(C=N1)CCCO3)CCCO2` (configuration not stated) here?
A: > 25.1 µM

Q: And the IC50?
A: > 25.1 µM

Q: For `Cc1ccc(C)c(NC(=O)c2cc(-c3ccc([N+](=O)[O-])cc3)nc(N)n2)c1`, which EC50 is on record?
A: > 70.8 µM

Q: What about the IC50 of the same compound?
A: > 70.8 µM

Q: What does the source list for `CCCCCCCCCCCCCCCCCCOCC(CO[P+](=O)O)OCCCCCCCCCCCCCCCCCC` (configuration not stated)?
A: EC50: > 50.1 µM; IC50: > 50.1 µM

Q: For `CCc1n[nH]c(=O)n1N`, which outcome is on record?
A: inactive

Q: How did the EC50 turn out when `COC1=CC2=CCC3C(CC[C@@]4(C)C3CC[C@@H]4C(C)=O)[C@@]2(C)CC1` (some centres not stated) was run?
A: > 200 µM

Q: And the IC50?
A: 74.1 µM

Q: What does the source list for `NC(=O)C(=O)C1CCC2=C(Sc3ccccc3N2)C1=O` (configuration not stated)?
A: EC50: > 46.8 µM; IC50: > 46.8 µM

Q: What does the source list for `Clc1ncccc1SSc1cccnc1Cl`?
A: EC50: > 200 µM; IC50: 89.1 µM

Q: Which results are given for `CCOC(=O)NP(=O)(N1CC1(C)C)N1CC1(C)C` (configuration not stated)?
A: EC50: 123 µM; IC50: > 200 µM

Q: `COC(=O)Cc1cc(O)c2c(c1O)C(=O)c1ccccc1C2=O` was tested. Which outcome did it give?
A: inactive

Q: How did the EC50 turn out when `CCOP1(=O)CC(C)=C(Cl)C(OC)C1` (configuration not stated) was run?
A: > 200 µM

Q: What about the IC50 of the same compound?
A: 107 µM

Q: Which results are given for `COC(=O)/C(C#N)=C(\Nc1ccccc1)N1CCCCC1`?
A: EC50: > 200 µM; IC50: 97.7 µM

Q: Which EC50 does the source give for `O=C1CSC(c2cccc([N+](=O)[O-])c2)N1c1ccc(-c2ccc(-n3c(-c4ccccc4)nc4ccccc4c3=O)cc2)cc1` (configuration not stated) here?
A: > 200 µM

Q: What about the IC50 of the same compound?
A: 28.2 µM

Q: Which results are given for `COc1c2occc2c(N=Cc2ccccn2)c2ccc(=O)oc12`?
A: EC50: > 39.8 µM; IC50: > 39.8 µM

Q: What does the source list for `COc1ccc(-c2oc(=O)c3ccccc3c2-c2ccccc2)cc1`?
A: EC50: > 15.8 µM; IC50: > 15.8 µM

Q: For `O=C1/C(=C/c2ccccc2)CCc2ccc([N+](=O)[O-])cc21`, which EC50 is on record?
A: > 200 µM

Q: What about the IC50 of the same compound?
A: 11.2 µM

Q: What does the source list for `Cn1c2ccccc2c2nnc(N/N=C/c3ccncc3)nc21`?
A: EC50: > 200 µM; IC50: > 200 µM

Q: `O=c1oc2ccccc2c(O)c1Cc1c(O)c2ccccc2oc1=O` was tested. Which EC50 did it give?
A: > 200 µM

Q: And the IC50?
A: 55 µM and > 200 µM

Q: How did the EC50 turn out when `CC(OC(=O)NCn1cc(-c2ccccc2)nn1)c1ccccc1` (configuration not stated) was run?
A: 56.2 µM

Q: And the IC50?
A: 75.9 µM

Q: `COc1ccc(Cl)cc1NC(=O)Nc1cc(C)ccn1` was tested. Which EC50 did it give?
A: > 200 µM

Q: And the IC50?
A: > 200 µM

Q: Which results are given for `O=c1c(C(c2ccc(Cl)cc2)c2c(O)c3ccccc3n(-c3ccccc3)c2=O)c(O)c2ccccc2n1-c1ccccc1`?
A: EC50: > 8.71 µM; IC50: > 8.71 µM

Q: How did the outcome turn out when `CN(C)CC1CCC/C1=N/OC(=O)c1ccccc1` (configuration not stated) was run?
A: inactive

Q: What does the source list for `CC1CN2COC(=S)SSSSC(=S)OCN3CC(C)N(COC(=S)SSSSC(=S)OCN1CC2C)CC3C` (configuration not stated)?
A: EC50: > 100 µM; IC50: 12 µM

Q: Which results are given for `O=C1C(Cl)N(c2ccc([N+](=O)[O-])cc2)C1c1c[nH]c2ccccc12` (configuration not stated)?
A: EC50: > 145 µM; IC50: 18.2 µM
